Results taken from PubChem BioAssay (NCI).
Values joined by “and” are separate entries in the source; they are usually repeats but may differ in a detail not shown here. Identical values can stand only once.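 48-hour exposure; five concentrations; linearly interpolated endpoints. GI50 marks 50% less growth. TGI is the concentration that stops growth completely.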

Key:
Assay in all cases: growth of human tumour cells (NCI), 48 h
[1] = tested on: HCT-116 colon
[2] = tested on: NCI-H226 lung
[3] = tested on: OVCAR-8 ovarian
[4] = tested on: RPMI-8226 leukemia
[5] = tested on: SF-268 CNS
[6] = tested on: SK-MEL-28 melanoma
[7] = tested on: SK-MEL-5 melanoma
[8] = tested on: SNB-75 CNS
[9] = tested on: SW-620 colon
[10] = tested on: UACC-62 melanoma
[11] = tested on: 786-0 renal
[12] = tested on: SR leukemia
[13] = tested on: TK-10 renal
[14] = tested on: MDA-N

In the case of `Cc1c2ccncc2cc2c1[nH]c1ccccc12`, the TGI [1] is reported as 7.12 µM, the TGI [2] is reported as 16.2 µM and the TGI [3] is reported as 16.2 µM. The TGI [4] was 8.7 µM, the TGI [5] was 32.3 µM and the TGI [6] was 5.91 µM. It also gave a TGI [7] of 11.2 µM, a TGI [8] of 17 µM and a TGI [9] of 4.68 µM. It also gave a TGI [10] of 20.7 µM.
`COc1ccc(C(c2c(O)c3ccccc3n(-c3ccccc3)c2=O)c2c(O)c3ccccc3n(-c3ccccc3)c2=O)cc1` was tested, and the TGI [11] was > 100 µM, the TGI [1] was > 100 µM and the TGI [2] was > 100 µM. The TGI [4] was > 100 µM, the TGI [5] was > 100 µM and the TGI [6] was > 100 µM. The TGI [7] was > 100 µM, the TGI [12] was > 100 µM and the TGI [9] was > 100 µM. For the same compound, the TGI [13] was > 100 µM.
With `NC1=C(NC(=O)Cc2ccccc2F)C(=O)c2ccccc2C1=O` the TGI [11] was 98.2 µM, the TGI [1] was > 100 µM and the TGI [2] was > 100 µM. The TGI [3] was > 100 µM, the TGI [4] was > 100 µM and the TGI [5] was > 100 µM. For the same compound, the TGI [6] was > 100 µM, the TGI [8] was 62.6 µM and the TGI [9] was > 100 µM. The TGI [13] was 69.7 µM and the TGI [10] was > 100 µM.
`CCOc1ccc2[nH]c3c(C)c4ccncc4c(C)c3c2c1` showed a TGI [11] of 2.2 µM, a TGI [1] of 1.78 µM and a TGI [2] of 4.24 µM. It also gave a TGI [5] of 2.71 µM, a TGI [6] of 3.61 µM and a TGI [7] of 2.86 µM. For the same compound, the TGI [8] was 3.1 µM, the TGI [9] was 1.75 µM and the TGI [13] was 3.59 µM.
`CC1=NC2=Nc3nc(C)cc[n+]3CN2C=C1` was tested, and the TGI [11] was > 100 µM, the TGI [1] was > 100 µM and the TGI [2] was > 100 µM. For the same compound, the TGI [3] was > 100 µM, the TGI [4] was 67.5 µM and the TGI [5] was > 100 µM. The TGI [6] was > 100 µM, the TGI [7] was > 100 µM and the TGI [8] was > 100 µM. For the same compound, the TGI [9] was > 100 µM, the TGI [13] was > 100 µM and the TGI [10] was > 100 µM.
For `CC(=O)OCC1OC(n2cc(F)c(=O)[nH]c2=O)C(NC(=O)OCc2ccccc2)C(OC(C)=O)C1OC(C)=O` (configuration not stated), the TGI [1] was > 100 µM, the TGI [2] was > 100 µM and the TGI [3] was > 100 µM. For the same compound, the TGI [4] was > 100 µM, the TGI [5] was > 100 µM and the TGI [6] was > 100 µM. For the same compound, the TGI [7] was > 100 µM, the TGI [8] was > 100 µM and the TGI [9] was > 100 µM. The TGI [10] was > 100 µM.
`Brc1ccc(C[P+]2(c3ccccc3)CCCCC2)cc1` was tested, and the TGI [11] was > 100 µM, the TGI [1] was > 100 µM and the TGI [2] was > 100 µM. For the same compound, the TGI [3] was > 100 µM, the TGI [4] was > 100 µM and the TGI [6] was > 100 µM. The TGI [7] was 39.1 µM, the TGI [8] was 77.1 µM and the TGI [12] was > 100 µM. The TGI [9] was > 100 µM, the TGI [13] was > 100 µM and the TGI [10] was > 100 µM.
With `COC(=O)/C=C(C)/C=C/C1OC(C)OCC1O` (configuration not stated) the TGI [11] was > 100 µM, the TGI [2] was > 100 µM and the TGI [3] was > 100 µM. For the same compound, the TGI [4] was > 100 µM, the TGI [5] was > 100 µM and the TGI [7] was > 100 µM. The TGI [9] was > 100 µM, the TGI [13] was > 100 µM and the TGI [10] was > 100 µM.
In the case of `CN(C(=O)Cc1ccccc1)n1cnn(CC(=O)OC(C)(C)C)c1=S`, the TGI [11] is reported as > 10 µM, the TGI [1] is reported as > 10 µM and the TGI [14] is reported as > 10 µM. For the same compound, the TGI [3] was > 10 µM, the TGI [4] was > 10 µM and the TGI [5] was > 10 µM. The TGI [6] was > 10 µM, the TGI [7] was > 10 µM and the TGI [8] was > 10 µM. The TGI [12] was > 10 µM, the TGI [9] was > 10 µM and the TGI [13] was > 10 µM. The TGI [10] was > 10 µM.
With `CCOC(=O)c1[nH]c(Br)c(-c2ccc(OC)c(OC)c2)c1Br` the TGI [11] was 11.7 µM, the TGI [1] was 13.7 µM and the TGI [2] was 1.65 µM. It also gave a GI50 [3] of 0.0511 µM, a TGI [3] of 36.8 µM and a TGI [4] of 16.6 µM. The GI50 [5] was 1.03 µM, the TGI [5] was 35.7 µM and the TGI [6] was 20.3 µM. The GI50 [7] was 0.0339 µM, the TGI [7] was 4.3 µM and 6.5 µM and the TGI [8] was 32.8 µM. For the same compound, the TGI [12] was 13.4 µM, the TGI [9] was 38.1 µM and the TGI [13] was 55.2 µM. The TGI [10] was 22 µM.
With `CS(=O)(=O)OCCN(CCOS(C)(=O)=O)c1ccc(C=Nc2cccc(Cl)c2)cc1` the TGI [11] was > 100 µM, the TGI [1] was > 100 µM and the TGI [2] was 11 µM. For the same compound, the TGI [3] was > 100 µM, the TGI [4] was 32.6 µM and the TGI [5] was > 100 µM. The TGI [6] was > 30.4 µM, the TGI [7] was 22.6 µM and the TGI [8] was > 31.1 µM. The TGI [12] was 0.307 µM, the TGI [9] was > 100 µM and the TGI [13] was 6.79 µM. The TGI [10] was 15.6 µM.
In the case of `O=C(/C=C/c1ccc(-c2ccccc2)cc1)NCc1ccc(C(=O)NCc2ccccc2)cc1`, the TGI [11] is reported as > 100 µM, the TGI [1] is reported as > 100 µM and the TGI [14] is reported as > 100 µM. For the same compound, the TGI [2] was > 100 µM, the TGI [3] was > 100 µM and the TGI [5] was > 100 µM. For the same compound, the TGI [6] was > 100 µM, the TGI [7] was > 100 µM and the TGI [8] was > 100 µM. The TGI [9] was > 100 µM, the TGI [13] was > 100 µM and the TGI [10] was > 100 µM.
For `c1cc2c(s1)-c1sccc1C21OCCO1`, the TGI [11] was > 100 µM, the TGI [1] was > 100 µM and the TGI [14] was > 100 µM. The TGI [2] was > 100 µM, the TGI [3] was > 100 µM and the TGI [4] was > 100 µM. For the same compound, the TGI [5] was > 100 µM, the TGI [6] was > 100 µM and the TGI [7] was > 100 µM. The TGI [12] was > 100 µM, the TGI [13] was > 100 µM and the TGI [10] was > 100 µM.
In the case of `CN1C/C(=C\c2cccs2)C(O)/C(=C/c2cccs2)C1` (configuration not stated), the TGI [11] is reported as > 100 µM, the TGI [1] is reported as > 100 µM and the TGI [14] is reported as > 100 µM. The TGI [2] was > 100 µM, the TGI [3] was > 100 µM and the TGI [4] was 89.9 µM. The TGI [5] was > 100 µM, the TGI [6] was > 100 µM and the TGI [7] was > 100 µM. The TGI [9] was > 100 µM, the TGI [13] was > 100 µM and the TGI [10] was > 100 µM.
In the case of `NC(=S)/N=C(/c1nc2ccc(Cl)cc2[nH]c1=O)C(O)c1ccccc1Cl` (configuration not stated), the TGI [11] is reported as > 100 µM, the TGI [2] is reported as > 100 µM and the TGI [3] is reported as > 100 µM. For the same compound, the TGI [4] was > 100 µM, the TGI [5] was > 100 µM and the TGI [6] was > 100 µM. For the same compound, the TGI [8] was > 100 µM, the TGI [9] was > 100 µM and the TGI [13] was > 100 µM. The TGI [10] was > 100 µM.
With `COC(=O)CCC1=C(CC(=O)OC)C(C)(OC)N=C1NC(=O)OCc1ccccc1` (configuration not stated) the TGI [11] was > 100 µM, the TGI [1] was > 100 µM and the TGI [2] was > 100 µM. For the same compound, the TGI [3] was > 100 µM, the TGI [4] was > 100 µM and the TGI [5] was > 100 µM. For the same compound, the TGI [6] was > 100 µM, the TGI [7] was > 100 µM and the TGI [8] was > 100 µM. For the same compound, the TGI [12] was > 100 µM, the TGI [9] was > 100 µM and the TGI [13] was > 100 µM. The TGI [10] was > 100 µM.
With `Cc1nc(C)c(N2CCN(S(=O)(=O)N(Cc3ccccc3)Cc3ccccc3)CC2)c(=O)[nH]1` the TGI [11] was 23.5 µM, the TGI [1] was > 100 µM and the TGI [14] was > 100 µM. For the same compound, the TGI [3] was 54.1 µM, the TGI [4] was > 100 µM and the TGI [5] was > 75 µM. For the same compound, the TGI [6] was > 100 µM, the TGI [7] was > 100 µM and the TGI [8] was 32.9 µM. For the same compound, the TGI [12] was > 100 µM, the TGI [9] was > 100 µM and the TGI [13] was > 72.9 µM. For the same compound, the TGI [10] was > 100 µM.
`CC(NC(=O)NC(C)(C)C)NC(=O)C(N)CC(=O)O` (configuration not stated) was tested, and the TGI [11] was > 100 µM, the TGI [1] was > 100 µM and the TGI [14] was > 100 µM. The TGI [2] was > 100 µM, the TGI [3] was > 100 µM and the TGI [4] was > 100 µM. For the same compound, the TGI [5] was > 100 µM, the TGI [6] was > 100 µM and the TGI [7] was > 100 µM. The TGI [8] was > 100 µM, the TGI [9] was > 100 µM and the TGI [13] was > 100 µM. The TGI [10] was > 100 µM.
`Cc1nc(CC#N)n[nH]1` was tested, and the TGI [11] was > 100 µM, the TGI [1] was > 100 µM and the TGI [14] was > 100 µM. For the same compound, the TGI [3] was > 100 µM, the TGI [4] was > 100 µM and the TGI [5] was > 100 µM. For the same compound, the TGI [7] was > 100 µM, the TGI [8] was > 100 µM and the TGI [12] was > 100 µM. The TGI [9] was > 100 µM, the TGI [13] was > 100 µM and the TGI [10] was > 100 µM.
